Data published in ChEMBL document CHEMBL1201862, “PubChem BioAssay data set” (2004).
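In this assay, cells in 96-well plates receive the compound at five concentrations for 48 hours. Endpoints are linearly interpolated between the surrounding concentrations. GI50: concentration for 50% inhibition of growth.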 Activity calls are given as the source filed them. Cut-off read from the data, not from the text of the source: active = GI50 up to about 1.1 µM and inactive = higher. Non-standard residues stand in square brackets, D forms with d. Residues, ends and D or L forms follow the SMILES beside them. β3hI = CC[CH](C)[CH](N)CC(=O)O

Columns and labels:
Test in all cases: inhibition of tumour cell growth, NCI panel, 48 h
DLD-1 = system: DLD-1
HOP-18 = system: HOP-18
LXFL 529 = system: LXFL 529
M19-MEL = system: M19-MEL
RXF 631 = system: RXF 631
SNB-78 = system: SNB-78
Hs-578T = system: Hs-578T
XF498 = system: XF498
DMS-273 = system: DMS-273

For N/N=C1\C(=O)N(c2ccc(Cl)c(Cl)c2)C(=O)C1C(=O)Nc1ccc(Cl)c(Cl)c1 (stereo unspecified), the GI50 (DLD-1) was 64 µM (inactive), the GI50 (HOP-18) was 21.6 µM (inactive) and the GI50 (LXFL 529) was 46.5 µM (inactive). For the same molecule, the GI50 (M19-MEL) was > 100 µM (inactive), the GI50 (RXF 631) was 59.2 µM (inactive) and the GI50 (SNB-78) was 24.7 µM (inactive).
Cc1c2cccc-2ccc2c1[nH]c1ccc(Br)cc12 was tested, and the GI50 (Hs-578T) was 5.86 µM (inactive).
With CCOC(=O)C(NC(=O)Nc1ccccc1)(Nc1cccc(Cl)c1)C(F)(F)F (stereo unspecified) the GI50 (Hs-578T) was 24.3 µM (inactive).
With COc1ccc(/C=C2/C(=O)N(C(=O)c3ccccc3O)N=C2C)cc1OC the GI50 (DLD-1) was 0.23 µM (active), the GI50 (LXFL 529) was 0.303 µM (active) and the GI50 (M19-MEL) was 1.29 µM (inactive). The GI50 (SNB-78) was 0.0453 µM (active) and the GI50 (XF498) was 1.68 µM (inactive).
With COC1=CC(=O)C=C(OC)C1=O [2,6-DIMETHOXYQUINONE] the GI50 (DLD-1) was 8.87 µM (inactive), the GI50 (DMS-273) was 36.1 µM (inactive) and the GI50 (HOP-18) was 45.8 µM (inactive). The GI50 (M19-MEL) was 4.22 µM (inactive), the GI50 (SNB-78) was 16.8 µM (inactive) and the GI50 (XF498) was 2.99 µM (inactive).
With CCCCCCCCCCCC[N+](CCCCCCCCCCCC)=C1SCCS1 the GI50 (DLD-1) was 8.47 µM (inactive), the GI50 (DMS-273) was 3.44 µM (inactive) and the GI50 (HOP-18) was 16.4 µM (inactive). For the same molecule, the GI50 (LXFL 529) was 3.81 µM (inactive), the GI50 (M19-MEL) was 3.29 µM (inactive) and the GI50 (RXF 631) was 11.1 µM (inactive). The GI50 (SNB-78) was 3.61 µM (inactive).
For NC(=S)N/N=C1\c2ccccc2CCC1CCC1(O)CCc2ccccc2C1=O (stereo unspecified), the GI50 (Hs-578T) was 16.1 µM (inactive).
In the case of CCC(C)C(CC(=O)N1CCCC1C(=O)NC(C(=O)NC(C(=O)NCC(=O)NC(CC(N)=O)C(=O)NC(C(=O)NC(C(=O)NC(CCCCN)C(N)=O)C(C)CC)C(C)CC)C(C)C)C(C)CC)NC(=O)C(N)C(C)CC (stereo not drawn) (H-I[β3hI]PIVGNIIK-NH2; configuration not given here), the GI50 (Hs-578T) was > 50 µM (inactive).
CC(C)C1CN1CC(O)Cn1ccnc1[N+](=O)[O-] (stereo unspecified) was tested, and the GI50 (Hs-578T) was > 100 µM (inactive).
CCOC(=O)Oc1ccc(C(CNC(C)C)OC(=O)OCC)cc1OC(=O)OCC (stereo unspecified) was tested, and the GI50 (Hs-578T) was > 100 µM (inactive).
In the case of COC(=O)C1=C(OC(=O)/C=C/c2ccc(Cl)cc2)C(C(=O)OC)[C@@]2(O)[C@@H](C(=O)OC)[C@H](C)C[C@@H]1[C@@H]2C(=O)OC (stereo partly specified), the GI50 (Hs-578T) was 3.9 µM (inactive).
With CC1(C)N=C(N)N=C(N)N1c1ccc(OCCCOc2ccccc2)c(Cl)c1 the GI50 (DLD-1) was 1.51 µM (inactive), the GI50 (DMS-273) was 0.0262 µM (active) and the GI50 (HOP-18) was 0.67 µM (active). For the same molecule, the GI50 (M19-MEL) was 0.147 µM (active), the GI50 (SNB-78) was 0.538 µM (active) and the GI50 (XF498) was < 0.01 µM (active).
With CC(C)c1ccccc1SCc1cc(=O)cc(CSc2ccccc2C(C)C)o1 the GI50 (Hs-578T) was 13.5 µM (inactive).
With CN(C)c1ccc(N2C(=S)SC(=N\c3ccccc3)/C2=N/c2ccccc2)cc1 the GI50 (Hs-578T) was > 100 µM (inactive).
With CN(C)CCn1c(=O)c2ccc3c4c(nn3CCN(C)C)c3cc([N+](=O)[O-])ccc3n(c1=O)c24 the GI50 (Hs-578T) was 0.144 µM (active).
In the case of C[S+](C)([O-])=Nn1c(=O)n2n(c1=O)[C@H]1CC[C@@H]2C1, the GI50 (Hs-578T) was > 100 µM (inactive).
For C=CCn1c(=O)c(C)cn(COCCO)c1=O, the GI50 (Hs-578T) was > 100 µM (inactive).
With COc1ccc2nc3ccc(OC)cc3c([S+]([O-])CCCl)c2c1 (stereo unspecified) the GI50 (Hs-578T) was 2.24 µM (inactive).
Clc1ccc(Cl)c(Nc2ccnc(SCc3ccccc3)n2)c1 was tested, and the GI50 (Hs-578T) was > 100 µM (inactive).
COc1cc(C2C(C(=O)O)=C(CO)Oc3cc4c(cc32)OCO4)cc(OC)c1OC (stereo unspecified) was tested, and the GI50 (DLD-1) was > 100 µM (inactive), the GI50 (DMS-273) was > 100 µM (inactive) and the GI50 (HOP-18) was 77.1 µM (inactive). The GI50 (M19-MEL) was > 100 µM (inactive), the GI50 (RXF 631) was > 100 µM (inactive) and the GI50 (SNB-78) was > 100 µM (inactive). For the same molecule, the GI50 (XF498) was > 100 µM (inactive).
